Laboratory results from patent US20130164747A1, “Predicting Treatment Response in Cancer Subjects” (University of South Florida, priority 2005, published 2013).
Read-outs that look alike come from different tables or passages of the source.

How the values were obtained:
[1] = tested on: RRM1 expression; assay: Summary of observations: response by RRM1 expression level
[2] = tested on: H23-R1 cells; assay: MTS assay, RRM1-overexpressing cell line; assay type: cell-based
Text: (§1) Reduced expression of RRM1 correlates with increased sensitivity to gemcitabine. Stable, genetically modified cell lines with increased and decreased RRM1 expression and corresponding controls were generated (Gautam et al., Oncogene 22:2135-42, 2003). H23, originating from a lung adenocarcinoma, was used as the parent cell line (Carney et al., Cancer Res 45:2913-23, 1985). H23siR1 was generated by stable transfection of NCI-H23 with a pSUPER-siRRM1 construct. These cells express an siRNA that targets RRM1, thereby causing decreased expression of RRM1. To generate this construct, the pSUPER-GFP/neo vector (OligoEngine, Seattle, Wash.) was digested with BglII and HindIII and the annealed oligonucleotides (5′-GATCCCCgacgctagagcggtettat[…]ataagaccgctctagcgte[…]-3′(SEQ ID NO:1) and 5′-[…]gacgctagagcggtcttatTC TCTTGAAataagaccgctctagcgtcGGG-3′ (SEQ ID NO:2)) were ligated into the vector. The 19 nucleotide RRM1 target sequences are denoted by lower-case letters. The control H23siCt cell line was generated which expressed an siRNA targeting the sequence […] (SEQ ID NO:3). This sequence has no similarity to any known gene. H23-R1 is a stable RRM1 overexpressing cell line, and H23-Ct is its corresponding control. Both were generated by transfection with full-length RRM1 cDNA cloned into the expression plasmid pCMV-Tag2 (Stratagene, La Jolla, Calif.) as previously described (Gautam et al., Oncogene 22:2135-42, 2003). The level of RRM1 expression in these cell lines was assessed by real-time quantitative RT-PCR and Western blot analysis.
(§2) A modified MTT assay (MTS assay, Promega, Madison, Wis.) was used to assess the impact of RRM1 expression on therapeutic efficacy of gemcitabine and platinum-containing agents in vitro. This MTS assay utilized 3-(4,5-dimethylthiazol-2-yl)-5-(3-carboxymethoxyphenyl)-2-(4-sulfophenyl)-2H-tetrazolium as the reagent. The assay was performed by seeding 4,000 cells/well in 96 well flat-bottom plates. H23-Ct, H23-R1, H23siR1, H23siCt cells were continuously exposed to drug for 72 or 96 hr. After 3 hr of incubation at 37° C., the absorbance was measured at 490 nm in a microplate reader (Benchmark Plus, Bio-Rad, Hercules, Calif.). All experiments were repeated three times.
(§3) The MTS assay was performed by seeding 4,000 cells/well in 96 well flat-bottom plates. H23-Ct, H23-R1, H23 siR1, H23siCt cells were continuously exposed to drug for 72 or 96 h. The assay was performed with 3-(4,5-dimethylthiazol-2-yl)-5-(3-carboxymethoxyphenyl)-2-(4-sulfophenyl)-2H-tetrazolium reagent. After 3 h of incubation at 37° C., the absorbance was measured at 490 nm. All experiments were repeated three times.

[3] = tested on: H23-Ct cells; assay: MTS assay, control cell line of H23-R1; assay type: cell-based
Text: as §1, §2, §3

[4] = tested on: H23 (NCI-H23) cells; assay: MTS assay (modified MTT), parent cell line; assay type: cell-based
Procedure: as §2, §3

[5] = tested on: H23siCt cells; assay: MTS assay, siRNA control cell line; assay type: cell-based
Text: as §1, §2, §3

[6] = tested on: H23siR1 cells; assay: MTS assay, cell line with siRNA-reduced RRM1 expression; assay type: cell-based
Text: as §1, §2, §3

[7] = tested on: ERCC1 expression; assay: Summary of observations: response by ERCC1 expression level
[8] = tested on: control cell lines H23-Ct and H23siCt; assay: Drug-induced apoptosis, annexin V labeling by flow cytometry; assay type: cell-based; settings: 6 h
Procedure: (§4) To determine drug-induced in vitro apoptosis, 3×10^5 cells/well were seeded in six-well plates and allowed to attach overnight. Chemotherapeutic agents were added to the culture at the indicated concentrations. After 2, 4, and 6 hours of treatment annexin V labeling of the cells was performed as recommended by the manufacturer (BD Pharmingen, San Diego, Calif.). The percentage of labeled cells was determined by flow cytometry (FACScalibur, Becton Dickinson, Franklin Lakes, N.J.). […] The proportion of cells labeled after 6 h of treatment with 250 nM gemcitabine was 6.6-6.9% in control cell lines, 2.6% in H23-R1, and 15.2% in H23siR1. Cisplatin exposure for 6 h at 200 nM yielded 14.5-15.1% apoptotic cells in H23-Ct and H23siCt, 5.5% apoptotic cells in H23-R1, and 19.0% apoptotic cells in H23siR1.

[9] = tested on: H23-R1 cells; assay: as above; assay type: cell-based
Procedure: as §4
(§5) Induction of apoptosis as a result of drug exposure was determined with 3×10^5 cells/well in six-well plates after 2, 4 and 6 hours of treatment. Cells were then labeled with annexin V, and labeling was determined by flow cytometry (FACScalibur, Becton Dickinson). After 4 h and 6 h of gemcitabine treatment 2.55% and 5.05% of the H23siCt cells were apoptotic while 5.09% and 15.7% of H23siR1 cells were apoptotic (FIG. 4). Likewise, the proportion of apoptotic cells after exposure to […] was higher in H23siR1 than in control cells. […] The increased apoptosis caused by both drugs in cell lines with reduced RRM1 expression was significant (p<0.05) as compared to control cells.

[10] = tested on: H23siR1 cells; assay: as above; assay type: cell-based
Procedure: as §4, §5

[11] = tested on: H23siCt cells; assay: as above; assay type: cell-based
Procedure: as §5

[12] = continuous exposure 72 or 96 h, read-out: IC50
[13] = H23-R1, RRM1 3-fold up, continuous exposure 72 or 96 hr, read-out: IC50 +/− SD
[14] = RRM1 no change, continuous exposure 72 or 96 hr, read-out: IC50 +/− SD
[15] = H23 (NCI-H23) parent cell line, continuous exposure 72 or 96 hr, read-out: IC50 +/− SD
[16] = H23siR1, RRM1 5-fold down, continuous exposure 72 or 96 hr, read-out: IC50 +/− SD
[17] = Homo sapiens, H23 (NCI-H23) parent cell line, continuous exposure 72 or 96 hr, read-out: IC50 +/− SD

Compound | IC50 [4, 17] [µM] | Response at RRM1 high expression [1] | Response at RRM1 low expression [1] | Response at RRM1 medium expression [1] | Response at ERCC1 high expression [7] | Response at ERCC1 low expression [7] | IC50 [2, 13] [µM] | IC50 [3, 14] [µM] | IC50 [4, 15] [µM] | IC50 [5, 14] [µM] | IC50 [6, 16] [µM] | also measured
Nc1nc2[nH]cc(CCc3ccc(C(=O)N[C@@H](CCC(=O)O)C(=O)O)cc3)c2c(=O)[nH]1 [Pemetrexed, pemetrexed] | – | resistant | Sensitive | – | – | – | – | – | – | – | – | –
CCC1=C[C@@H]2CN(C1)Cc1c([nH]c3ccccc13)[C@@](C(=O)OC)(c1cc3c(cc1OC)N(C)[C@H]1[C@@](O)(C(=O)OC)[C@H](OC(C)=O)[C@]4(CC)C=CCN5CC[C@]31[C@@H]54)C2 [Vinorelbine, vinorelbine] | – | Sensitive | Sensitive | Resistant | – | – | – | – | – | – | – | IC50 ([2]; H23-R1, continuous exposure 72 or 96 h, read-out: IC50): 0.4 µM; IC50 [3, 12]: 20 µM; IC50 ([4]; Homo sapiens, NCI-H23, continuous exposure 72 or 96 h, read-out: IC50): 8 µM; IC50 [5, 12]: 20 µM; IC50 ([6]; H23siR1, continuous exposure 72 or 96 h, read-out: IC50): 0.01 µM
N.N.[Cl][Pt][Cl] [Cisplatin, cisplatin] | – | Minimal | Minimal | – | resistant | sensitive | 1.5 | 1.25 | 1.2 | 1 | 0.95 | Apoptotic cells ([8]; H23-Ct and H23siCt, cisplatin 200 nM): 14.5-15.1%; Apoptotic cells ([9]; H23-R1, cisplatin 200 nM, 6 h): 5.5%; Apoptotic cells ([10]; H23siR1, cisplatin 200 nM, 6 h): 19.0%
N.N.O=C([O-])C1(C(=O)[O-])CCC1.[Pt+2] [Carboplatin, carboplatin] | – | Minimal | Minimal | – | resistant | sensitive | – | 15 | 12 | 13 | 10 | –

Now from value to molecule, other results behind:

IC50 [4, 17] [µM] | Compound | Response at RRM1 high expression [1] | Response at RRM1 low expression [1] | Response at RRM1 medium expression [1] | Response at ERCC1 high expression [7] | Response at ERCC1 low expression [7] | IC50 [2, 13] [µM] | IC50 [3, 14] [µM] | IC50 [4, 15] [µM] | IC50 [5, 14] [µM] | IC50 [6, 16] [µM] | also measured
1 | CC(=O)O[C@@]12CO[C@@H]1C[C@H](O)[C@@]1(C)C(=O)[C@H](O)C3=C(C)[C@@H](OC(=O)[C@H](O)[C@@H](NC(=O)OC(C)(C)C)c4ccccc4)C[C@@](O)([C@@H](OC(=O)c4ccccc4)[C@H]21)C3(C)C [Docetaxel, docetaxel] | Sensitive | Sensitive | Resistant | – | – | 0.009 | 0.7 | – | 2.5 | 0.006 | Apoptosis compared with control cells ([9]; H23-R1 versus control cells): more apoptosis; Proportion of apoptotic cells compared with control cells ([10]; H23siR1 versus control cells): higher
0.5 | Nc1ccn([C@@H]2O[C@H](CO)[C@@H](O)C2(F)F)c(=O)n1 [Gemcitabine, gemcitabine] | resistant | Sensitive | – | – | – | 6 | 0.75 | – | 1.02 | 0.1 | Proportion of cells labeled with annexin V ([8]; control cell lines, 250 nM gemcitabine): 6.6-6.9%; IC50 of H23-R1 higher than IC50 of H23-Ct (more resistant than control cell line) ([2]; H23-R1 versus H23-Ct): 8 fold; Proportion of cells labeled with annexin V ([9]; H23-R1, 250 nM gemcitabine, 6 h): 2.6%; Proportion of cells labeled with annexin V ([10]; H23siR1, 250 nM gemcitabine, 6 h): 15.2%; Apoptotic cells ([10]; H23siR1, 4 h of treatment (Example 4, FIG. 4)): 5.09%; Apoptotic cells ([10]; H23siR1, 6 h of treatment (Example 4, FIG. 4)): 15.7%; IC50 of H23siR1 lower than IC50 of H23siCt (more sensitive than control cell line) ([6]; H23siR1 versus H23siCt): 10 fold; Apoptotic cells ([11]; 4 h of treatment (Example 4, FIG. 4)): 2.55%; Apoptotic cells ([11]; 6 h of treatment (Example 4, FIG. 4)): 5.05%
